Experimental data: the supplement of paper PMC10307832

Tests used:
Experiment in all cases: relative viability (nuclei count vs DMSO), 5 days (fraction); higher = more cells survive
[1] = compound: CC1=CC(=C(N1C2=CC=C(C=C2)Cl)C)C(=O)CN3CCCCC3 [IU1-47] + Nc1nc2[nH]cc(CCc3ccc(C(=O)N[C@@H](CCC(=O)O)C(=O)O)cc3)c2c(=O)[nH]1 [Pemetrexed] (partner 0.2 µM)
How it was run: (§1)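 Five library-drug doses in √10 steps were combined with a fixed anchor-drug dose, or a single drug was given alone, by pin tool to lung cancer cell lines in 1536-well plates the day after seeding. Nuclei were stained and counted after 5 days. Relative viability is the nuclei count in treated wells over that in vehicle wells, taken as the median of duplicate plates.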

[2] = compound: Cc1nc(C(=O)NCC(=O)O)c(O)c2ccc(Oc3ccccc3)cc12 [FG-4592] + N=C(N)NC(=N)NCCc1ccccc1 [Phenformin] (partner 250 µM)
How it was run: as §1

[3] = compound: CC1=CC(=C(N1C2=CC=C(C=C2)Cl)C)C(=O)CN3CCCCC3 [IU1-47] + Cc1cc(Nc2cc(N3CCN(C)CC3)nc(Sc3ccc(NC(=O)C4CC4)cc3)n2)n[nH]1 [Tozasertib] (partner 0.1 µM)
How it was run: as §1

[4] = compound: CC1=CC(=C(N1C2=CC=C(C=C2)Cl)C)C(=O)CN3CCCCC3 [IU1-47] + NC(=O)Nc1cc(-c2cccc(F)c2)sc1C(=O)N[C@H]1CCCNC1 [AZD7762] (partner 0.2 µM)
How it was run: as §1

Row | Cell Line | relative viability ([1]; first compound 0.08 µM) | relative viability ([1]; first compound 0.253 µM) | relative viability ([1]; first compound 0.8 µM) | relative viability ([1]; first compound 2.53 µM) | relative viability ([1]; first compound 8 µM) | relative viability ([2]; first compound 0.08 µM) | relative viability ([2]; first compound 0.253 µM) | relative viability ([2]; first compound 0.8 µM) | relative viability ([2]; first compound 2.53 µM) | relative viability ([2]; first compound 8 µM) | relative viability ([3]; first compound 0.08 µM) | relative viability ([3]; first compound 0.253 µM) | relative viability ([3]; first compound 0.8 µM) | relative viability ([3]; first compound 2.53 µM) | relative viability ([3]; first compound 8 µM) | relative viability ([4]; first compound 0.08 µM) | relative viability ([4]; first compound 0.253 µM) | relative viability ([4]; first compound 0.8 µM) | relative viability ([4]; first compound 2.53 µM) | relative viability ([4]; first compound 8 µM)
1 | NCI-H1563 | 0.892 | 0.829 | 0.871 | 0.703 | 0.716 | 0.663 | 0.735 | 0.684 | 0.665 | 0.603 |  |  |  |  |  |  |  |  |  | 
2 | NCI-H1623 |  |  |  |  |  | 0.607 | 0.609 | 0.595 | 0.517 | 0.542 | 0.494 | 0.43 | 0.428 | 0.451 | 0.428 |  |  |  |  | 
3 | NCI-H1648 | 0.776 | 0.888 | 1.01 | 0.644 | 0.494 |  |  |  |  |  | 0.518 | 0.569 | 0.476 | 0.338 | 0.43 | 0.61 | 0.727 | 0.821 | 0.732 | 0.508
4 | NCI-H1650 | 0.419 | 0.338 | 0.335 | 0.36 | 0.294 | 0.464 | 0.448 | 0.338 | 0.586 | 0.51 | 0.399 | 0.489 | 0.363 | 0.382 | 0.264 |  |  |  |  | 
5 | NCI-H1703 |  |  |  |  |  |  |  |  |  |  |  |  |  |  |  | 0.0968 | 0.172 | 0.133 |  | 0.112
6 | NCI-H1792 | 0.529 | 0.817 | 0.789 | 0.877 | 0.35 | 0.355 | 0.247 |  | 0.352 | 0.24 |  |  |  |  |  | 0.501 | 0.613 | 0.643 | 0.666 | 0.619
7 | NCI-H2009 | 1.1 | 1.05 | 1.01 | 1.08 | 1.05 | 0.502 | 0.402 | 0.53 | 0.454 | 0.549 | 0.782 | 0.781 | 0.751 | 0.77 | 0.662 |  |  |  |  | 
8 | NCI-H2023 | 0.22 | 0.232 | 0.246 | 0.208 | 0.204 | 0.427 | 0.38 | 0.437 | 0.442 | 0.379 | 0.329 | 0.363 | 0.366 | 0.349 | 0.291 |  |  |  |  | 
9 | NCI-H2228 | 0.37 | 0.345 | 0.387 | 0.362 | 0.362 | 0.358 | 0.221 | 0.225 | 0.348 | 0.24 | 0.267 | 0.303 | 0.246 | 0.198 | 0.249 |  |  |  |  | 
10 | SK-LU-1 | 0.981 | 1.05 | 1.03 | 1.02 | 0.887 | 0.445 | 0.387 | 0.456 | 0.49 | 0.5 | 0.316 | 0.361 | 0.309 | 0.318 | 0.292 |  |  |  |  | 
11 | SK-MES-1 | 0.95 | 1.05 | 0.97 | 0.993 | 0.854 | 0.626 | 0.66 | 0.669 | 0.596 | 0.674 | 1 | 1.03 | 0.906 | 0.868 | 0.935 |  |  |  |  | 
12 | SW 1573 | 0.935 | 0.912 | 0.766 | 0.657 | 0.749 | 0.388 | 0.346 | 0.435 | 0.372 | 0.35 | 0.17 | 0.167 | 0.176 | 0.184 | 0.143 |  |  |  |  | 
